Results on one molecule are retold here after US12558367B2, “Nicotinamide riboside and derivatives thereof in intravenous formulations and methods of use thereof” (ChromaDex Inc., priority 2023, dated 2026).

This assay concerns whole blood NAD+. Kind of assay: NAD+ analysis of dried blood spots (DBS) by LC/MS. The assay is classed as in vivo, human. The settings on record: for Mean NAD: dried blood spot. Details: Mean NAD: unit not given here. The method, then: Finger punctures were conducted using a lancet. Blood was then applied to the circles on the dried blood spot (DBS) card and allowed to dry for a minimum of 3 hours. […] See, for example, FIG. 3. The use of dried blood spots (DBS) allowed for the analysis of NAD+ levels based upon samples that could be prepared at the clinic or by the study participants from home. While 36 of 37 participants in study 1 utilized the DBS at all time points, not all samples were analyzable. […] However, the model was significant for the 3-hour timepoint (p=0.010; […] At 6 hours, near-significant differences were observed between the NAD+ and NR IV group (t=1.99, p=0.055), and significant differences were observed between the NR IV and saline groups (t=−2.80, p=0.009), and between the NR IV and oral NR groups (t=−2.59, p=0.015). See, Tables 3-9 below. Tables 3-9 below reflect mean/SD for each group at each of the 7 timepoints. A basic ANOVA was conducted to investigate the data.

Each structure is given as a SMILES string.

On to `NC(=O)c1ccc[n+]([C@@H]2O[C@H](COP(=O)([O-])OP(=O)(O)OC[C@H]3O[C@@H](n4cnc5c(N)ncnc54)[C@H](O)[C@@H]3O)[C@@H](O)[C@H]2O)c1` [NAD+ IV, Nicotinamide Adenine Dinucleotide], for which the “effect on whole blood NAD+” value (NR IV: at 3 hours relative to placebo and NAD+ IV, NAD+ IV: within 24 hours) is listed as “did not significantly elevate”. The “increase in whole blood NAD+ relative to baseline” value (at 24 hours) is 2%. Further, the “Mean NAD” value is on record as 19.20 (3 Hours Post-Intervention); 18.88 (6 Hours Post-Intervention); 19.73 (24 Hours Post-Intervention); 19.27 (Baseline Scores); 19.16 (Immediately Post-Intervention (10 minutes after infusion)).
